Experimental data published in patent US20160011177A1, “SCREENING METHOD FOR THERAPEUTIC AGENTS FOR CHARCOT-MARIE-TOOTH DISEASE AND SELF-DIFFERENTIATION MOTOR NEURONS USED THEREFOR” (Samsung Life Public Welfare Foundation, priority 2013, published 2016).
“Also recorded” adds a separate entry of the source.

Legend:
[1] = tested on: CMT1A transgenic mouse; conditions: cited from earlier work
[2] = tested on: Pmp22 mRNA; conditions: transgenic mouse; cited from earlier work
[3] = tested on: HSP27 S135F-MN; experiment: Moving mitochondria in motor neuron axons, microfluidic culture; format: cell-based, human
Text: (§1) To use the neurons differentiated from CMT patient originated iPSCs as the CMT drug efficiency test model, moving mitochondria was investigated over the treatment of tubastatin A, the histon deacetylase 6 (HDAC6) inhibitor, through microfluidic culture, as shown in FIG. 13. And the axonal transport efficiency of motor neurons (CMT 2F-MN) was confirmed (FIG. 13).
(§2) Particularly, the CMT-2F-MN or WA09_MN obtained in Example <3-1> was separated as single cells by using accutase, which were then inoculated in microchannel plates (provided by Dr. Mok, Seoul National University, Korea; Park J W et al., Nat Protoc 2006; 1: 2128-2136) at the density of 1.0×10^5 cells/plate, followed by culture in neurobasal/B27 for 10 days. After axons were fully grown through micrometer-sized grooves and stretched to the opposite compartment, the processed motor neurons were transfected with mito-dsRED2 by using lipofectamine 2000 (Invitrogen, USA). Within 2 days from the transfection, 5˜10 μM tubastatin A was treated to the medium, followed by culture for 6 hours. Imaging of mitochondria was performed by using fluorescent microscope at the speed of 121 snaps/2 min. Moving velocity of the motor neuron was measured by using ImageJ and Kymograph.

[4] = tested on: WA09_hESC-MN; experiment: as above; format: cell-based, human; conditions: 6 hours
Text: as §1, §2

[5] = tested on: HSP27 P182L-MN; experiment: as above; format: cell-based, human
Text: as §1, §2

[6] = tested on: CMT 2F-MN; experiment: α-tubulin acetylation in motor neurons (immunostaining, Western blotting); format: cell-based, human; conditions: 5 μM tubastatin A, 12 hours, versus non-treated and normal control WA09_MN
Text: To use the neurons differentiated from CMT patient originated iPSCs as the CMT drug efficiency test model, the recovery of axonal transport according to the treatment of tubastatin A, the histon deacetylase 6 (HDAC6) inhibitor, was investigated. CM2 subtype has heterogeneity in CMT causing gene, but nevertheless it causes malfunction in axonal transport system in many patients (Gentil B J and Cooper L, Brain Res Bull 2012; 88: 444-453). Therefore, the axonal transport efficiency of CMT 2F-MN was investigated by measuring the level of α-tubulin acetylation which was reported previously to be associated with the interaction between the vehicle and the motor protein (Westermann S and Weber K. Nat Rev Mol Cell Biol 2003; 4: 938-947).
Particularly, the CMT-2F-MN or WA09_MN differentiated by the same manner as described in Example <3-1> was treated with 5 μM tubastatin A, followed by culture for 12 hours. Then, the cells were immunostained with α-tubulin and acetylated α-tubulin by the same manner as described in Example <2-3>. […]
The CMT-2F-MN or WA09_MN treated with 5 μM tubastatin A was suspended in RIPA lysis buffer (pH 8.0) containing 150 mM NaCl, 1.0% NP-40, 0.5% sodium deoxycholate, 0.1% sodium dodecylsulfate, and 50 mM Tris. […] The band density was analyzed by using UN-SCAN-IT gel software in order to (Silk Scientific, USA) measure the level of α-tubulin acetylation. […]

[7] = tested on: myelinated nerve fibers; conditions: cited from earlier work
[8] = CMT 2F-MN with S135F mutation, tubastatin A treated versus non-treated
[9] = CMT 2F-MN with P182L mutation, tubastatin A treated versus non-treated

Molecule: O=C1O[C@H]([C@@H](O)CO)C(O)=C1O [Ascorbic acid]
- phenotype of hereditary motor and sensory neuropathies [1]: improved

Molecule: CN(C)c1ccc([C@H]2C[C@]3(C)[C@@H](CC[C@]3(O)CCCO)[C@@H]3CCC4=CC(=O)CCC4=C32)cc1 [onapristone]
- over-expression of Pmp22 mRNA [2]: suppressed
- phenotype of hereditary motor and sensory neuropathies [2]: improved
- side effects [2]: without side effects

Molecule: CN1CCc2c(c3ccccc3n2Cc2ccc(C(=O)NO)cc2)C1 [tubastatin A]
- moving velocity of mitochondria, in words [3, 8]: significantly increased
- transport frequency of mitochondria, in words [3, 8]: significantly increased
- Moving velocity of mitochondria ([3]; HSP27 S135F-MN, 5 μM tubastatin A treated, 6 hours): 0.2498 ± 0.02357 μm/sec
- Moving velocity of mitochondria ([4]; 5 μM tubastatin A treated): 0.2446 ± 0.03859 μm/sec
- Migration of mitochondria (number of moving mitochondria by total number) ([4]; 10 μM tubastatin A treated): 39.31 ± 3.831%
- moving velocity of mitochondria, in words [5, 9]: significantly increased
- transport frequency of mitochondria, in words [5, 9]: significantly increased
- Moving velocity of mitochondria ([5]; HSP27 P182L-MN, 5 μM tubastatin A treated, 6 hours): 0.2599 ± 0.05186 μm/sec
- Migration of mitochondria (number of moving mitochondria by total number) ([5]; HSP27 P182L-MN, 10 μM tubastatin A treated, 6 hours): 44.61 ± 10.450%
- level of α-tubulin acetylation [6]: increased/recovered back to that of the normal control group; also recorded: significantly increased

B1: neurotrophin-3 (protein, UniProt P20783 139-257, looked up)
Neurotrophin-3: YAEHKSHRGEYSVCDSESLWVTDKSSAIDIRGHQVTVLGEIKTGNSPVKQYFYETRCKEARPVKNGCRGIDDKHWNSQCKTSQTYVRALTSENNKLVGWRWIRIDTSCVCALSRKIGRT
notes: neurotrophin reported to increase myelinated nerve fibers
- myelinated nerve fibers [7]: increased
- sensor related symptoms [7]: improved
